Measurements reported in US12544382B2, “2, 4, 6-tri-substituted pyrimidine compound as ATR kinase inhibitor” (BEIJING TIDE PHARMACEUTICAL CO., LTD., priority 2019, dated 2026).
pIC50: −log10 of the molar value.

Experiments:
ATR kinase = ATR kinase (Homo sapiens (Human), UniProt Q13535); assay: ATR kinase activity assay (time-resolved fluorescence, p53 substrate phosphorylation); format: biochemical
Protocol: Biotinylated protein derived from p53 (Eurofins, art. No.: 14-952) was phosphorylated with ATR kinase. The amount of phosphorylated protein was determined by time-resolved fluorescence in this assay. The amount of phosphorylated protein was detected by anti-p53-phospho-(serine 15)-K-specific antibody (Cisbio, art. No.: 61GSTDLA) and d2 labeled anti-GST antibody (Cisbio, art. No. 61P08KAE). Before the experiment, the following working solution was prepared as required: 1× reaction buffer (20 mM HEPES PH8.0, 1% glycerol, 0.01% Brij-35), dilution buffer (20 mM HEPES PH8.0, 1% glycerol, 0.01% Brij-35, 5 mM DTT and 1% BSA), stop solution (20 mM HEPES PH8.0, 1% glycerol, 0.01% Brij-35, 250 mM EDTA), detection buffer (50 mM HEPES pH7.0, 150 mM NaCl, 267 mM KF, 0.1% sodium cholate, 0.01% Tween-20, 0.0125% sodium azide). The reagents used above are purchased from Sigma or Invitrogen, except for those where the manufacturer was mentioned.
Operations are as follows:
4× gradient dilution of compound solutions was prepared with 1× reaction buffer to obtain 9 compound solutions of different concentrations, and 2.5 μL 4× gradient dilution of compound solutions was added to a 384-well analysis plate (784075, Greiner). 4× p53 substrate working solution (40 nM) was prepared with 1× reaction buffer, and 2.5 μL 4× p53 substrate working solution was added to the 384-well analysis plate. 4×ATR/ATRIP working solution (12.8 ng/μL) was prepared with dilution buffer, and 2.5 μL 4×pATR/ATRIP working solution was added to the 384-well analysis plate. 4×ATP working solution (2 mM) was prepared with deionized water, 2.5 μL 4×ATP working solution was added to the 384-well analysis plate, and incubated at room temperature in dark for 30 minutes. 5 μL stop solution was added to the 384 analysis plate. Finally, 5 μL test mixture (0.084 ng/μL Anti-phospho-p53(ser15)-K and 5 ng/μL Anti-GST-d2) was added to the 384 well analysis plate, incubated overnight at room temperature, and the fluorescence signal was detected with ENVISION (Perkinelmer) instrument (excitation wavelength: 320 nm, emission wavelength: 665 nm and 615 nm). The inhibition rate in each well was calculated by the fluorescence intensity value of each hole: ER (Emission Ratio)=(Fluorescence intensity at 665 nm/Fluorescence intensity at 615 nm); inhibition rate=(ER positive-ER test compound)/(ER positive-ER negative)×100%, the IC50 value of compounds were calculated by standard parameter fitting software (GraphPad Prism 6.0).

[1] = test system: TOV21G (ovarian cancer) cells; assay: In vitro cell proliferation inhibition assay (CellTiter-Glo), TOV21G; format: cell-based, human; settings: 120 hours
Protocol: (§1) By detecting the effect of compound on cell activity in vitro in the tumor cell lines TOV21G (ovarian cancer) and MV4-11 (leukemia), the effect of compound inhibiting cell proliferation was studied in this assay.
(§2) TOV21G cells and MV4-11 cells were purchased from American Type Culture Collection (ATCC).
TOV21G cells were cultured in MCDB105/M199 medium (containing 15% […]), and used for testing when the cell confluence reaches 85% or more. Each well of a 96-well culture plate was inoculated with about 1000 cells, cultured for 24 hours, and treated with different concentrations (0-10 μM) of compound solution to be tested in triplex. Blank wells (contains medium only) and control wells (seeded cells was not treated with drug) were set. Cells were cultured for 120 hours, 40 μL Cell Titer-Glo solution (Promega, #G7573) were added to each well, incubated with shaking for 20 min in the dark, 100 μL solution was transferred from each well to a 96-well white plate (Corning, #3917), and the luminescence value was read by Biotek Synergy H1 multifunctional microplate reader.

MV4-11 (leukemia) cells = assay: In vitro cell proliferation inhibition assay (CellTiter-Glo), MV4-11; format: cell-based, human; settings: MV4-11 cells
Protocol: as §1, §2
MV-4-11 cells were cultured in IMDM medium (containing 20% FBS), each well of a 96-well culture plate was inoculated with about 10000 cells, and treated with different concentrations (0-10 μM) of compounds to be tested in triplex. Blank wells (containing medium only) and control wells (inoculated with cells but not treated with drug) were set. Cells were cultured for 120 hours, 40 μL Cell Titer-Glo solution was added to each well, incubated with shaking for 20 min in the dark, 100 μL solution was transferred from each well to a 96-well white plate, and the luminescence value was read by Biotek Synergy H1 multifunctional microplate reader. Inhibition rate (%)=100%×(control well−test well)/(control well−blank well)

[2] = In vitro liver microsomal stability assay, human; format: in vitro ADME; settings: human liver microsomes, final concentration 2.0 nM, with or without NADPH, within 60 minutes; read-out: Human liver microsomes t1/2
Protocol: (§3) Experiments on the stability of the compound of the present disclosure in liver microsomes were performed. The compounds to be tested (final concentration: 2.0 nM) were co-incubated with human/mouse liver microsomes with or without NADPH, and the concentration of compounds in the incubation supernatant was detected within 60 minutes.

[3] = In vitro liver microsomal stability assay, mouse; format: in vitro ADME; settings: mouse liver microsomes, final concentration 2.0 nM, with or without NADPH, within 60 minutes; read-out: Mouse liver microsomes t1/2
Protocol: as §3

[4] = In vivo pharmacokinetics assay in mice; settings: mouse; male ICR mice, oral gavage 10 mg/kg, plasma
Protocol: The in vivo pharmacokinetics of the compounds was studied.
Male ICR mice (3 in each group) were orally administered by gavage with a dose of 10 mg/kg. Plasma samples were collected before (0 h) and after administration (0.25, 0.5, 1, 2, 4, 6, 8, 24 h), and the collected samples were analyzed by LC/MS and data were collected. The collected analytical data were used to calculate the relevant pharmacokinetic parameters by Analyst v1.6.2 (AB Applied Biosystems Company, USA).

Sequence of ATR kinase (Q13535 whole entry): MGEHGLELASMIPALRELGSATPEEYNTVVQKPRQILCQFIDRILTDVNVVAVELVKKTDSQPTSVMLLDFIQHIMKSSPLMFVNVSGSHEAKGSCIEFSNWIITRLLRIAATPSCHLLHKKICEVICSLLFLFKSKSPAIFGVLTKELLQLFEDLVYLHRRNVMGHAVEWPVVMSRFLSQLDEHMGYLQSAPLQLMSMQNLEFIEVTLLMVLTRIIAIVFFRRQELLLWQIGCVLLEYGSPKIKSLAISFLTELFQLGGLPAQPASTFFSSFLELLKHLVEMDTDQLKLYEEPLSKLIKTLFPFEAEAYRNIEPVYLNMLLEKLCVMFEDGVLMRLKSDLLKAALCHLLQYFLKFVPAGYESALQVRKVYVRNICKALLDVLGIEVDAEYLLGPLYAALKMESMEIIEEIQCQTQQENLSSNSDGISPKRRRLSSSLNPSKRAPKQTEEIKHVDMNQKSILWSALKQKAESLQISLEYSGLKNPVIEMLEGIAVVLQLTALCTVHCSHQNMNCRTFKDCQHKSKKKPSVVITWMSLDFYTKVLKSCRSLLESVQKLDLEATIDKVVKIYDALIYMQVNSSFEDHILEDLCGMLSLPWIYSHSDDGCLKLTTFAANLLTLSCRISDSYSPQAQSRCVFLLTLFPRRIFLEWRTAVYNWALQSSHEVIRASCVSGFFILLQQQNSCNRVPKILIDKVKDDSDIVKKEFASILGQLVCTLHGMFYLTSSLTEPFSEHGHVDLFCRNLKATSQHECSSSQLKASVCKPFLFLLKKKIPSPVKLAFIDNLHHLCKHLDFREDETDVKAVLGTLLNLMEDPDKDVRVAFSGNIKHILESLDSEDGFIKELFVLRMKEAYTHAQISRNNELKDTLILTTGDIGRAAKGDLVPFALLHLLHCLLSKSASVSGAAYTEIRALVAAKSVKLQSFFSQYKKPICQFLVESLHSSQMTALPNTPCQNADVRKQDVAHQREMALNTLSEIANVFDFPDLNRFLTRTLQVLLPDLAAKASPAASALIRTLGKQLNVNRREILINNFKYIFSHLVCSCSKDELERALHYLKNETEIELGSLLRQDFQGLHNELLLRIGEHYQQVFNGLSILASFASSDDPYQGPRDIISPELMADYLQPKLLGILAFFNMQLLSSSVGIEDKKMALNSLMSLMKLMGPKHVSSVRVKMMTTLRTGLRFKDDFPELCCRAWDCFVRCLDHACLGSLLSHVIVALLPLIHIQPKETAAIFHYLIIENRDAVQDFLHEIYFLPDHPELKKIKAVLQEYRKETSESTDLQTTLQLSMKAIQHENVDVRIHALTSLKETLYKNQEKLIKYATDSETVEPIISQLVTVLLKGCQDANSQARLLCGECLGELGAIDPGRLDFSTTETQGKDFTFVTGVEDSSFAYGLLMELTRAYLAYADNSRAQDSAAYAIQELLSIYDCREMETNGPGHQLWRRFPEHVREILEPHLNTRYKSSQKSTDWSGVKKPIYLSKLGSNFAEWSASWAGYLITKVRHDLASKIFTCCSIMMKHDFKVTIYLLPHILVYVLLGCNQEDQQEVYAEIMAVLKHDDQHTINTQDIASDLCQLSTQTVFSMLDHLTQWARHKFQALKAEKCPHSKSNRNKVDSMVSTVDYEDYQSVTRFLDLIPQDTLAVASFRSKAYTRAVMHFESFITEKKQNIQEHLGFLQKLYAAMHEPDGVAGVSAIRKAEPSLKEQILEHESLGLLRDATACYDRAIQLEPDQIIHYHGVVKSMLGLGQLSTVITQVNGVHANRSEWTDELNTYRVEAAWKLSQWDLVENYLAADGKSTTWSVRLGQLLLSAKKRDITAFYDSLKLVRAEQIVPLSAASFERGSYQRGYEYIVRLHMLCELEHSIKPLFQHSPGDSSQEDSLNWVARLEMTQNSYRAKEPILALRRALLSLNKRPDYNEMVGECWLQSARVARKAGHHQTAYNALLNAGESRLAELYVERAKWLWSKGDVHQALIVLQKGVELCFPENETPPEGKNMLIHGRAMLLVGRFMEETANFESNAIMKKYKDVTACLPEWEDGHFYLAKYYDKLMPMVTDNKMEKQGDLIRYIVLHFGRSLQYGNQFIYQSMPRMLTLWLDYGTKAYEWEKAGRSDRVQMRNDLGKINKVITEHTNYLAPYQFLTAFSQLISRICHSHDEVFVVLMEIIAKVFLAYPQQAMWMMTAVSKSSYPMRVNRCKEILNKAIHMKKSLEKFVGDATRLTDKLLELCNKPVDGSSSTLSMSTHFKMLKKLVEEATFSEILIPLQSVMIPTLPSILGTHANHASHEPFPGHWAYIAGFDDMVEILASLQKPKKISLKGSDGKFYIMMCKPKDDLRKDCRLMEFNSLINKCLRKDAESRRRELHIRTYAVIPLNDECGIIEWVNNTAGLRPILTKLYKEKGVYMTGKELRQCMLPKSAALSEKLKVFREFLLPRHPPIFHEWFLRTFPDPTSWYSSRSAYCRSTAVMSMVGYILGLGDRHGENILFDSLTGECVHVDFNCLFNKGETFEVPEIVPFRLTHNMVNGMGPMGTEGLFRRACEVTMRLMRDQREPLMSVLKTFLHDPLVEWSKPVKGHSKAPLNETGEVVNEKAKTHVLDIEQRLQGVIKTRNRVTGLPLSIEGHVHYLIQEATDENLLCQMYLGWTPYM
Sequence of ATR kinase (Q8WXE1 whole entry partner): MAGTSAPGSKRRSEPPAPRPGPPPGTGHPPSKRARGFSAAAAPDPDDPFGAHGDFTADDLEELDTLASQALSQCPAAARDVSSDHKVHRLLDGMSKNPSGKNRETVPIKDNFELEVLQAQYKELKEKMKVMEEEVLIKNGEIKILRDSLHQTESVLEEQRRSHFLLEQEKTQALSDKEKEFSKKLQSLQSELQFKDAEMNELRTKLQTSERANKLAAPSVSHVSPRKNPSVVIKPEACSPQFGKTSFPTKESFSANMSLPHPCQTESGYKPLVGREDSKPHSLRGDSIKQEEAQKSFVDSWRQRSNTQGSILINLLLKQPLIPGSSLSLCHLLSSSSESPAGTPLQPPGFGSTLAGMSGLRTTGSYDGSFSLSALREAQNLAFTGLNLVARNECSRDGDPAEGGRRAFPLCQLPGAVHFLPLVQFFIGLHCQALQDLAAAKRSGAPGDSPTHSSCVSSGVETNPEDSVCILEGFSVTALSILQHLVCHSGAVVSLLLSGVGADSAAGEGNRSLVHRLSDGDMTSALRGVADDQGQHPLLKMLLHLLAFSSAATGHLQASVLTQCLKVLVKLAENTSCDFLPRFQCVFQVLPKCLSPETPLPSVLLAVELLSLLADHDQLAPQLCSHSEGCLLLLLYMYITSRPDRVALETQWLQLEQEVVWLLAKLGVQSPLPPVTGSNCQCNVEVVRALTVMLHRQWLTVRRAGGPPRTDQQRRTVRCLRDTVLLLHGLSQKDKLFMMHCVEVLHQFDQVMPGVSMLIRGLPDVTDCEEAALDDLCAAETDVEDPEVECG

pIC50 (ATR kinase)	pIC50 ([1]; Homo sapiens)	pIC50 (MV4-11 (leukemia) cells; Homo sapiens, MV4-11, 120 h)	half-life at 2 nM [2] [h]	half-life at 2 nM [3] [h]	AUC [4] [ng·h/mL]	Cmax [4] [ng/mL]	Tmax [4] [h]	half-life [4] [h]	pIC50 [1]	pIC50 (MV4-11 (leukemia) cells; 120 hours)	Compound
8.30	6.59	6.92	5.63	1.03	–	–	–	–	–	–	Cc1nn(C2CCNCC2)c(C(F)(F)F)c1-c1cc(N2CCOC[C@H]2C)nc(-c2ccnc3[nH]ccc23)n1 [Compound D1]
9.00	6.64	6.85	5.05	2.83	–	–	–	–	–	–	Cc1nn(C2CCNCC2)c(C(F)(F)F)c1-c1cc(N2CCOC[C@H]2C)nc(-c2cccc3[nH]ccc23)n1 [Compound D17]
–	6.92	7.10	3.38	1.83	5450	467	5.3	3.1	–	–	CNc1nc2ccccc2n1-c1nc(-c2c(C)nn(C3CCNCC3)c2C(F)(F)F)cc(N2CCOC[C@H]2C)n1 [Compound D24]
> 9.00	6.55	6.64	–	–	2160	199	4.7	3.9	–	–	Cc1nn(C2CCNCC2)c(C(F)(F)F)c1-c1cc(N2CCOC[C@H]2C)nc(-c2cc(F)cc3[nH]ccc23)n1 [Compound D28]
8.70	–	–	–	–	–	–	–	–	6.26	6.70	CNc1nc2ccccc2n1-c1nc(-c2c(C)nn(C3CCNCC3)c2C(F)(F)F)cc(C23CCOCC2C3)n1 (stereo not shown) [Compound D48]
8.70	–	–	–	–	–	–	–	–	6.30	6.26	Cc1nn(C2CCNCC2)c(C(F)(F)F)c1-c1cc(C23CCOCC2C3)nc(-c2cc(F)cc3[nH]ccc23)n1 (stereo not shown) [Compound D49]
7.49	–	–	–	–	–	–	–	–	6.17	6.18	CNc1nc2cc(F)ccc2n1-c1nc(-c2c(C)nn(CC3(C)COC3)c2C(F)(F)F)cc(N2CCOC[C@H]2C)n1 [Compound D51]
8.70	–	–	–	–	–	–	–	–	6.43	6.23	Cc1nn(C[C@@H]2CCCN2)c(C(F)(F)F)c1-c1cc(N2CCOC[C@H]2C)nc(-c2cc(F)cc3[nH]ccc23)n1 [Compound D52]
8.40	–	–	–	–	–	–	–	–	6.15	6.21	Cc1nn(C[C@H]2CCCN2)c(C(F)(F)F)c1-c1cc(N2CCOC[C@H]2C)nc(-c2cc(F)cc3[nH]ccc23)n1 [Compound D53]
8.40	6.74	7.05	–	–	–	–	–	–	–	–	Cc1nn([C@H]2CCNCC2(F)F)c(C)c1-c1cc(N2CCOC[C@H]2C)nc(-c2cc(F)cc3[nH]ccc23)n1 [Compound D54a]
7.89	6.36	6.59	–	–	–	–	–	–	–	–	Cc1nn([C@@H]2CCNCC2(F)F)c(C)c1-c1cc(N2CCOC[C@H]2C)nc(-c2cc(F)cc3[nH]ccc23)n1 [Compound D54b]
8.52	–	–	–	–	–	–	–	–	6.72	6.66	Cc1nn(C(=O)N2CCNCC2)c(C)c1-c1cc(N2CCOC[C@H]2C)nc(-c2cc(F)cc3[nH]ccc23)n1 [Compound D55]
8.05	–	–	–	–	–	–	–	–	6.36	6.49	CNc1nc2ccccc2n1-c1nc(-c2c(C(F)(F)F)nn(C3CCNCC3)c2C)cc(N2CCOC[C@H]2C)n1 [Compound D56]
7.80	–	–	–	–	–	–	–	–	6.39	6.66	Cc1nn(C2CCNCC2(F)F)c(C)c1-c1cc(N2CCOC[C@H]2C)nc(-c2ccnc3[nH]ccc23)n1 (stereo partly shown) [Compound D57]
